# Data published in US10780094B2, “Use of carbonic anhydrase inhibitors for treatment of neurological and psychiatric disorders” (New York University, priority 2016, dated 2020).
# Assays:
# [1] = tested on: cerebral microvascular endothelial cells (D3); assay: Aβ-induced mitochondrial Cytochrome C release; format: cell-based, human; conditions: Example 3
# Description: Both EC and SH-SY5Y cells were plated on to glass chamber slides (Thermo Fisher Scientific), pre-coated with either collagen-I or poly-d-lysine (for ECs and SH-SY5Y cells respectively). After seeding, cells were allowed to attach for 1 day before treatment with the different peptides for 1-3 days, as above. Cells were washed with ice-cold PBS, fixed with 4% paraformaldehyde (10 min at room temperature) and blocked for 1 h with 20 mg/ml BSA in PBST (PBS containing 0.3% Triton X-100). Slides were further incubated with mouse anti-CytC monoclonal antibody (BD Biosciences; 1:200 dilution in PBST containing 5 mg/ml BSA; 2 h at room temperature) followed by Alexa Fluor® 488-conjugated anti-(mouse IgG) antibody (Invitrogen; 1:200 in PBST with 5 mg/ml BSA; 1 h at room temperature). Fluorescence signals were visualized in a Nikon Eclipse E 800 deconvolution microscope using NIS Elements software (Nikon Instruments) for image acquisition and processing, and AutoQuant (Media Cybernetics) for 3D deconvolution. The effect of methazolamide in preventing the Aβ-induced release of CytC from the mitochondria into the cytoplasm was evaluated in EC and SH-SY5Y cultures. […]
# Normal Human Astrocytes = assay: Cell Death ELISAplus, Aβ-induced apoptosis (fragmented nucleosomes); format: cell-based; conditions: 1 day
# Description: The extent of apoptosis caused by Aβ in the presence or absence of MTZ was assessed by quantitation of nucleosome formation using Cell Death ELISA^plus (Roche Applied Science, Indianapolis, Ind.). Briefly, after incubation with the peptides, plates were centrifuged in a Beckman J-6B centrifuge (10 min; 1,000 rpm), cells lysed, and DNA-histone complexes (nucleosomes) quantitated by Cell Death ELISA, as previously described (Fossati et al., 2010).
# caspase 9 in glial cells = assay: Caspase-Glo 9 activity after Aβ challenge; format: cell-based, human
# Description: Caspase 9 and caspase 3/7 activation was measured by luminescent assays (Caspase-Glo 9 and caspase-Glo 3/7, Promega, Madison, Wis.), in cells treated with the Aβ peptides in DMEM without FBS. Briefly, 10,000 cells/well were plated in 96 wells plates and incubated for 24 hours with the freshly solubilized Aβ peptides. Caspase-Glo reagent was added to the cell cultures resulting in cell lysis, followed by caspase cleavage of the substrate and generation of a luminescent signal produced by the luciferase reaction. After 40 minutes incubation, the amount of caspase activity was evaluated in a plate-reading luminometer (Synergy HT Multi-Mode Microplate Reader, Biotek, Winooski, Vt.) as described in (Fossati et al., 2012b). To inhibit non-specific background activity, the proteasome inhibitor MG-132 was added to the Caspase-Glo reagent before the experiment as indicated by the manufacturer. In all cases results are expressed as fold-change compared to untreated control cells.
# Aβ42 and Aβ40-Q22 = molecular target: T1, Aβ42 and Aβ40-Q22 (Homo sapiens, UniProt P05067, E693Q); assay: Native gel electrophoresis and Western blot of Aβ aggregation species; conditions: presence or absence of the CAI; 1 hour, 1 day, 3 days
# T1 construct: purchased James I. Elliott at Yale University (custom chemical peptide synthesis)
# Description: Electrophoretic analysis for assessment of peptide aggregation in the presence or absence of MTZ was performed under native conditions using 5-30% gradient polyacrylamide gels, in absence of SDS, using 25 mM Tris/glycine, pH 8.8, as running buffer, as previously described (Fossati et al., 2010). Aβ oligomerization patterns were visualized by subsequent WB analysis. Briefly, proteins were electrotransferred to nitrocellulose membranes ([…] pore size; Hybond-ECL, GE Healthcare Life Sciences, Piscataway, N.J.) at 400 mA for 2.5 h, using 10 mM 3-cyclohexylamino-1-propanesulfonic acid (CAPS; Sigma) buffer, pH 11.0, containing 10% (v/v) methanol. After blocking with 5% nonfat milk in TBS containing 0.1% Tween 20 (TBST), membranes were immunoreacted with a combination of mouse monoclonal anti-Aβ antibodies 4G8 (epitope: residues Aβ18-22) and 6E10 (epitope: residues Aβ3-8), both from Covance (Princeton, N.J.), at 1:3000 dilution each, followed by HRP-labeled anti-mouse IgG and ECL chemistry (Fossati et al., 2010).
smiles,measurement,setting,value
"CC(=O)/N=c1/sc(S(N)(=O)=O)nn1C [MTZ, methazolamide]",CytC localization (immunocytochemistry),"[1]; Aβ40-Q22 25 μM or Aβ40/42 WT 10 μM, 24 h",retained in the mitochondria
same,"release of CytC, cells with diffuse green staining as % of total cells",[1]; FIG. 23B,prevented
same,DNA fragmentation after Aβ challenge,Normal Human Astrocytes; 100 μM MTZ,significantly effective at reducing DNA fragmentation
same,Aβ-mediated increase in fragmented nucleosomes,"Normal Human Astrocytes; 300 μM MTZ, Aβ42 10 μM",completely prevented
same,caspase 9 over-activation,"caspase 9 in glial cells; 100 or 300 μM MTZ, 10 μM Aβ42, 24 hours",significantly reduced
same,"caspase 9 activity, drug alone",caspase 9 in glial cells; MTZ alone in absence of Aβ,did not have any effect
same,Aβ aggregation species in native gels,Aβ42 and Aβ40-Q22,did not differ
